Laboratory results: US12054510B2, “2′ and/or 5′ amino-acid ester phosphoramidate 3′-deoxy adenosine derivatives as anti-cancer compounds” (Nucana plc, priority 2014, dated 2024)

Legend:
CCRF-CEM = test: CellTiterGlo cell viability assay, initial screening; format: cell-based
Protocol: (§1) In vitro viability assays were performed to assess the effects of compounds on cell viability in 7 selected cell lines over 72 hr using the CellTiterGlo (CTG, Promega-G7573) assay. The tests were performed in duplicates with treatment of compounds at 9 points, 3.16 folds titration in 96 well plates over ˜72 hr. The compound starting concentrations were […]. Cell viability assay using CellTiterGlo in 96-well plate were performed. The compound treatment was 72 hrs, under standard growth conditions, and in duplicate. Compounds were dissolved to 40 mM with thawed […]. Compounds were serially diluted at 3.16 fold in thawed DMSO, and warmed to 37° C. before being dissolved in media (2 μl+200 μl). After compounds were dissolved in media (media was also warmed to 37° C.). Media containing compounds were warmed to 37° C. in incubator and then compounds in media were added to cell plates (50 μl+50 μl), in duplicates. The compounds final concentrations were from […] to 19.9 nM. All compound solubilities were checked and recorded again, then the plates were transferred to CO2 tissue culture incubator immediately and incubated for 3 days. DMSO final concentration is 0.5%.

HepG2 = test: as above; format: cell-based; conditions: HepG2; 72 hr; Table II
Protocol: as §1

HL-60 [1] = test: as above; format: cell-based
Protocol: as §1

MOLT-4 [2] = test: as above; format: cell-based
Protocol: as §1

MCF-7 = test: as above; format: cell-based
Protocol: as §1

K562 [3] = test: as above; format: cell-based; conditions: 72 hr, Table II
Protocol: as §1

KG-1 [4] = test: as above; format: cell-based
Protocol: as §1

CEM (TdT+ve) = test: ATP ViaLight plus cell viability assay; format: cell-based, Human; conditions: for (FD) fold difference compared to control: CEM
Protocol: (§2) Certain compounds of the invention were subjected to further studies to test the cytotoxic activity of certain compounds of the invention and also to measure their activity against 4 haematological cancer cell lines • TdT positive CEM (Human ALL) • TdT negative K562 (Human CML) • TdT negative H1-60 (Human ANLL) • RL (CRL-2261) non-HD lymphoma • The concentrations of the active metabolite dATP (Cordycepin triphosphate) in these cell lines was also measured. • The cytotoxic activity and the intracellular 3′-dATP concentrations were also studied in the presence of hENT1, Adenosine Kinase (AK) and Adenosine Deaminase pharmacological inhibitors in CEM and RL cancer cell lines. Said inhibitors that mimic known cancer resistance mechanisms. Methods Cell Culture
(§3) HL-60, K562, CCRF-CEM and RL cell lines were cultured in RPMI-1640 medium (Sigma Aldrich, UK), which were supplemented with 10% Fetal Bovine Serum (FBS) (PAA Laboratories), 1% amphotericin B (5.5 ml) and 1% penicillin/streptomycin (5.5 ml) (PAA Laboratories) and grown in flasks at 37° C. incubator with 5% CO2.
(§4) The amount of ATP was used as a measurement of cell number and cell viability. ATP ViaLight™ plus assay kit (Lonza, USA: Product No. LT07-121) to detect ATP in cells treated in luminescence compatible 96 well plates (initial concentration of cells was 1×10^4 cells/well) with cordycepin and ProTides at concentrations of: 0, 0.1, 0.5, 1, 5 and 10 μM, followed by incubation for 72 hours at 37° C. incubator with 5% CO2. For inhibitor studies, 10 μM of NBTI or 1 μM EHNA or A-134974 was added and left for 5 minutes before adding the drugs (see section 5 for inhibitor details).
(§5) After incubation, 50 μl of cell lysis reagent was added to the 96 well plates to release the intracellular ATP, followed by 100 μl of ATP monitoring reagent (AMR). The luminescent values of each well were determined using FLUOstar OPTIMA microplate reader (BMG Labtech) which convert ATP into light by using luciferase enzyme. Therefore, the amount of luminescence produced was directly proportional to the amount of ATP.
(§6) Cell lines were treated in the same way as described above but before treatment with drugs, a number of inhibitors were added: • 1) Nitrobenzylthioinosine (NBTI) (Sigma-Aldrich, St. Louis, MO, product # N2255) blocks nucleoside transporters • 2) EHNA hydrochloride (Sigma-Aldrich, St. Louis, MO, product # E114) blocks adenosine deaminase • 3) Adenosine kinase inhibitor A-134974 dihydrochloride hydrate (Sigma-Aldrich, St. Louis, MO, product # A2846): blocks adenosine kinase
(§7) The dose-response curves of cytotoxicity of the drugs was determined using non-linear regression analysis of percentage cell viability versus concentration and EC50 values were obtained. The intracellular assay was conducted in five replicates for each condition. Intracellular assay was determined using paired t test (two-tailed) analysis of 3′ ATP/ATP concentration and p-values were obtained. For all the analysis, Prism Software program (GraphPad Software) was used and Microsoft Powerpoint® 2013 was used to plot the results.

HL-60 [5] = test: ATP ViaLight plus cell viability assay; format: cell-based, Human; conditions: HL-60
Protocol: as §2, §3, §4, §5, §7

K562 [6] = test: ATP ViaLight plus cell viability assay; format: cell-based, Human; conditions: K562
Protocol: as §2, §3, §4, §5, §7

RL (CRL-2261) = test: ATP ViaLight plus cell viability assay; format: cell-based
Protocol: as §2, §3, §4, §5, §6, §7

BxPC-3 = test: Solid tumour and haematological malignancy assay (CellTiterGlo); format: cell-based; conditions: 72 hr
Protocol: (§8) In vitro viability assay were performed to assess the effects of compounds on cell viability in selected cell lines over 72 hr using the CellTiterGlo (CTG, Promega-G7573) assay. The tests were performed in duplicates with treatment of compounds at 9 points, 3.16 folds titration in 96 well plates over ˜72 hr. The compound starting concentrations were 198 mM. Cell viability assay using CellTiterGlo in 96-well plate were performed. Compound treatment 72 hrs, standard growth conditions, duplicates. Compounds were dissolved to 40 mM with thawed […]. Compounds were serially diluted at 3.16 fold in thawed DMSO, and warmed to 37° C. before being dissolved in media (2 μl+200 μl). After compounds were dissolved in media, media containing compounds were warmed to 37° C. in incubator and then compounds in media were added to cell plates (50 μl+50 μl) in duplicates. The compounds' final concentrations were from 198M to 19.9 nM. All compound solubilities were checked and recorded again, then the plates were transferred to CO2 tissue culture incubator immediately and incubated for 3 days. DMSO final concentration is 0.5%.

Jurkat = test: as above; format: cell-based; conditions: 72 hr
Protocol: as §8

Z138 = test: as above; format: cell-based; conditions: 72 hr
Protocol: as §8

SW620 = test: as above; format: cell-based; conditions: SW620; 72 hr
Protocol: as §8

HT29 = test: as above; format: cell-based
Protocol: as §8, with “The tests were performed in duplicates with treatment of compounds at 9 points, 3.16 folds titration in 96 well plates over ˜72 hr. The compound starting concentrations were 198 mM.” left out, “Compounds were serially diluted at 3.16 fold in thawed DMSO, and warmed to 37° C. before being dissolved in media (2 μl+200 μl).” left out, “The compounds' final concentrations were from 198M to 19.9 nM.” left out

CCRFCEM = test: as above; format: cell-based; conditions: for Emax: Homo sapiens, CCRF-CEM, 72 h, read-out: MI %
Protocol: as §8, with “The tests were performed in duplicates with treatment of compounds at 9 points, 3.16 folds titration in 96 well plates over ˜72 hr. The compound starting concentrations were 198 mM.” left out, “Compounds were serially diluted at 3.16 fold in thawed DMSO, and warmed to 37° C. before being dissolved in media (2 μl+200 μl).” left out, “The compounds' final concentrations were from 198M to 19.9 nM.” left out

KG-1 [7] = test: as above; format: cell-based
Protocol: as §8, with “The tests were performed in duplicates with treatment of compounds at 9 points, 3.16 folds titration in 96 well plates over ˜72 hr. The compound starting concentrations were 198 mM.” left out, “Compounds were serially diluted at 3.16 fold in thawed DMSO, and warmed to 37° C. before being dissolved in media (2 μl+200 μl).” left out, “The compounds' final concentrations were from 198M to 19.9 nM.” left out

MOLT-4 [8] = test: as above; format: cell-based; conditions: Homo sapiens, MOLT-4, 72 h, read-out: MI %
Protocol: as §8

RL = test: as above; format: cell-based; conditions: Homo sapiens, 72 h, read-out: MI %
Protocol: as §8

NCI-H929 = test: as above; format: cell-based; conditions: Homo sapiens, NCI-H929, 72 h, read-out: MI %
Protocol: as §8

MCF7 = test: as above; format: cell-based; conditions: Homo sapiens, MCF7, 72 h, read-out: MI %
Protocol: as §8, with “The tests were performed in duplicates with treatment of compounds at 9 points, 3.16 folds titration in 96 well plates over ˜72 hr. The compound starting concentrations were 198 mM.” left out, “Compounds were serially diluted at 3.16 fold in thawed DMSO, and warmed to 37° C. before being dissolved in media (2 μl+200 μl).” left out, “The compounds' final concentrations were from 198M to 19.9 nM.” left out

CCCCCOC(=O)[C@H](CC(C)C)NP(=O)(OC[C@@H]1C[C@@H](O)[C@H](n2cnc3c(N)ncnc32)O1)Oc1cccc2ccccc12 (mixture of isomers) [D, (2S)-pentyl 2-(((((2S,4R,5R)-5-(6-amino-9H-purin-9-yl)-4-hydroxytetrahydrofuran-2-yl)methoxy)(naphthalen-1-yloxy)phosphoryl)amino)-4-methylpentanoate]
M.I. %: maximum percentage inhibition of cell viability (CCRF-CEM; CCRF-CEM, 72 hr, Table II): 100% | M.I. %: maximum percentage inhibition of cell viability (HepG2): 99% | M.I. %: maximum percentage inhibition of cell viability (HL-60 [1]; HL-60, 72 hr, Table II): 100% | M.I. %: maximum percentage inhibition of cell viability (MOLT-4 [2]; MOLT-4, 72 hr, Table II): 100% | M.I. %: maximum percentage inhibition of cell viability (MCF-7; MCF-7, 72 hr, Table II): 100% | M.I. %: maximum percentage inhibition of cell viability (K562 [3]): 99% | M.I. %: maximum percentage inhibition of cell viability (KG-1 [4]; KG-1, 72 hr, Table II): 100% | (FD) fold difference compared to Cordycepin = Cordycepin IC50/ProTide IC50 (CEM (TdT+ve); CEM (TdT+ve)): 3 | (FD) fold difference compared to Cordycepin = Cordycepin IC50/ProTide IC50 (HL-60 [5]): 2 | (FD) fold difference compared to Cordycepin = Cordycepin IC50/ProTide IC50 (K562 [6]): 3 | (FD) fold difference compared to Cordycepin = Cordycepin IC50/ProTide IC50 (RL (CRL-2261)): 5

Nc1ncnc2c1ncn2[C@@H]1O[C@H](COP(=O)(NCC(=O)OCc2ccccc2)Oc2ccccc2)C[C@H]1O (stereo partly drawn) [C, Benzyl 2-(((((2S,4R,5R)-5-(6-amino-9H-purin-9-yl)-4-hydroxytetrahydrofuran-2-yl)methoxy)(phenoxy)phosphoryl)amino)acetate]
MI % (BxPC-3): 99% | MI % (Jurkat): 100% | MI % (Z138): 100% | MI % (SW620): 100% | MI % (HT29; HT29, 72 hr): 99% | MI % (CCRFCEM; CCRFCEM, 72 hr): 100% | MI % (KG-1 [7]; KG-1, 72 hr): 102% | M.I. %: maximum percentage inhibition of cell viability (CCRF-CEM; CCRF-CEM, 72 hr, Table II): 94% | M.I. %: maximum percentage inhibition of cell viability (HepG2): 59% | M.I. %: maximum percentage inhibition of cell viability (HL-60 [1]; HL-60, 72 hr, Table II): 82% | M.I. %: maximum percentage inhibition of cell viability (MOLT-4 [2]; MOLT-4, 72 hr, Table II): 93% | M.I. %: maximum percentage inhibition of cell viability (MCF-7; MCF-7, 72 hr, Table II): 87% | M.I. %: maximum percentage inhibition of cell viability (K562 [3]): 92% | M.I. %: maximum percentage inhibition of cell viability (KG-1 [4]; KG-1, 72 hr, Table II): 65%

CCCCCOC(=O)[C@H](CC(C)C)NP(=O)(OC[C@@H]1C[C@H](O)[C@H](n2cnc3c(N)nc(OC)nc32)O1)Oc1cccc2ccccc12 (stereo partly drawn) [Compound M]
Emax (CCRFCEM): 100%

Nc1ncnc2c1ncn2[C@@H]1O[C@H](CO)C[C@H]1O [Cordycepin, 3′-deoxyadenosine, reference compound]
MI % (BxPC-3): 22% | MI % (Jurkat): 20% | M.I. %: maximum percentage inhibition of cell viability (CCRF-CEM; human, 72 h): 12% | M.I. %: maximum percentage inhibition of cell viability (HepG2): 66% | M.I. %: maximum percentage inhibition of cell viability (HL-60 [1]; human, 72 h): 88% | M.I. %: maximum percentage inhibition of cell viability (MOLT-4 [2]; human, 72 h): 52% | M.I. %: maximum percentage inhibition of cell viability (MCF-7; human, 72 h): 78% | M.I. %: maximum percentage inhibition of cell viability (K562 [3]): 88% | M.I. %: maximum percentage inhibition of cell viability (KG-1 [4]; human, 72 h): 78% | (FD) fold difference compared to control (CEM (TdT+ve); AK): 3 | (FD) fold difference compared to control (CEM (TdT+ve); EHNA): −16 | (FD) fold difference compared to control (CEM (TdT+ve); NBTI): 5 | (FD) fold difference compared to control (RL (CRL-2261); AK): 4 | (FD) fold difference compared to control (RL (CRL-2261); EHNA): 2 | (FD) fold difference compared to control (RL (CRL-2261); NBTI): 2

COc1nc(N)c2ncn([C@@H]3O[C@H](COP(=O)(N[C@@H](C)C(=O)OCc4ccccc4)Oc4cccc5ccccc45)C[C@H]3O)c2n1 (stereo partly drawn) [K, (2S)-benzyl 2-((((2S,4R,5R)-5-(6-amino-2-methoxy-9H-purin-9-yl)-4-hydroxytetrahydrofuran-2-yl)methoxy)(naphthalen-1-yloxy)phosphorylamino)propanoate]
Emax (MOLT-4 [8]): 104% | Emax (RL): 104% | Emax (NCI-H929): 102% | Emax (HT29; Homo sapiens, HT-29, 72 h, read-out: MI %): 98% | Emax (MCF7): 99% | Emax (CCRFCEM): 102% | Emax (KG-1 [7]; Homo sapiens, KG-1, 72 h, read-out: MI %): 99%
